The record followed here is US9969742B2, “Imidazotriazinone compounds” (Ironwood Pharmaceuticals, Inc., priority 2012, dated 2018).

Assay type in all cases: biochemical
In one assay the target is T1, PDE9A2 (Homo sapiens, UniProt O76083).
T1 construct: purchased Reaction Biology Corporation, Malvern, Pa
In words: Phosphodiesterase enzyme screening assay, PDE9A2. The following applies: 4.0 μM cGMP substrate, 1 hour at R.T. A digest of the protocol:
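Human PDE isoforms were incubated 1 h at room temperature with 4.0 μM fluorescent cGMP substrate in 100 mM HEPES pH 7.5, 5 mM MgCl2, 1 mM DTT, 0.003% Brij. EDTA stop buffer ended reactions, and substrate and 5′-GMP product were separated by microfluidic electrophoretic mobility shift with laser-induced fluorescence. Inhibition was calculated against control wells.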

The target in the next assay is T2, PDE1A (Homo sapiens, UniProt P54750).
T2 construct: purchased Reaction Biology Corporation, Malvern, Pa
In words: Phosphodiesterase enzyme screening assay, PDE1A. The source says:
(§1) Compounds of the invention were screened against PDE1A, PDE1B, PDE2A, PDE3A, PDE3B, PDE4A1A, PDE4B1, PDE4D3, PDE5A1, PDE6C, PDE7A, PDE8A1, PDE9A2, PDE10A2 AND PDE11A isoforms of the phosphodiesterase enzyme to determine activity and overall selectivity through comparative analysis. […] Where 8-methoxy-IBMX and Zaprinast were used as reference inhibitors.
(§2) The phosphodiesterase enzyme isoforms were obtained from a commercial retailer (Reaction Biology Corporation, Malvern, Pa.) for use in the instant screening assay.
(§3) The analysis was completed using the Caliper LabChip 3000 and a 12-sipper LabChip. LabChip assays are separations-based, meaning that the product and substrate are electrophoretically separated, thereby minimizing interferences and yielding the highest data quality available on any screening platform. […] High Z′ values, few false positives, few false negatives and analytical quality reproducibility are the reasons cited for the increasing reliance on the LabChip assays.
(§4) The off-chip incubation mobility-shift phosphodiesterase assay uses a microfluidic chip to measure the conversion of a fluorescent cyclic AMP substrate to a 5′-AMP product, or a cyclic GMP substrate to a 5′-GMP product. The reaction mixture, from a microtiter plate well, is introduced through a capillary sipper onto the chip, where the fluorescent substrate and product are separated by electrophoresis and detected via laser-induced fluorescence. […] The precision of microfluidics allows researchers to detect subtle interactions between drug candidates and therapeutic targets.
(§5) Reactions were carried out in 100 mM HEPES (pH 7.5), 5 mM MgCl2, 1 mM DTT, 0.003% Brij, 4.0 μM cGMP substrate. The reaction was started by addition of cGMP or cAMP and incubated for 1 hour at R.T. The reaction was terminated by the addition of stop buffer containing 100 mM HEPES (pH 7.5), 15 mM EDTA, 0.015% Brij-35, 5% DMSO. Cyclic AMP/GMP substrate and 5′-AMP/5′-GMP product were separated by charge using electrophoretic mobility shift. Product formed was compared to control wells to determine inhibition or enhancement of enzyme activity.
(§6) Data points were averages of quadruplicate wells and error bars represented the SEM for each point.

In a further assay the target is T3, PDE1B (Homo sapiens, UniProt Q01064).
T3 construct: purchased Reaction Biology Corporation, Malvern, Pa
In words: Phosphodiesterase enzyme screening assay, PDE1B.
Source text: as §1, §2, §3, §4, §5, §6

Setting [1] is: Table 1, 10 concentrations, read-out: Band (PDE9A2 IC50).
The mark [2] stands for this setting: Table 1, ratio of IC50 values, value greater than 1 indicates greater selectivity for PDE9A2.

Like-named read-outs stand apart in the source and are kept apart here.

T1 sequence (O76083 1-533 isoform O76083-2): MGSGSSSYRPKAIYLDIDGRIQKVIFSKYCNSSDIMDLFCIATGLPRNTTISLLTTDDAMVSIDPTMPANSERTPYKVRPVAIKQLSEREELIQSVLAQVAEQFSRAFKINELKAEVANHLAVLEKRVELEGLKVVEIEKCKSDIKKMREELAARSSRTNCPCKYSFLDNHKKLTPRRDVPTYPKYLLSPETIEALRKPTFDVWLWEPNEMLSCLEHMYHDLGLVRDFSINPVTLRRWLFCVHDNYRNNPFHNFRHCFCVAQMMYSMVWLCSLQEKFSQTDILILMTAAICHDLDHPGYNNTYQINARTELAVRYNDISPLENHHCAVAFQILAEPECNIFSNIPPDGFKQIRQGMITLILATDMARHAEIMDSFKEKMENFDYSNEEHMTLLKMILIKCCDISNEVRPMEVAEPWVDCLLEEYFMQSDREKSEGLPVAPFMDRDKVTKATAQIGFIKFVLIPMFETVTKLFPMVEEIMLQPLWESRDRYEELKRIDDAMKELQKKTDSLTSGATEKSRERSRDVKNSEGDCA
T3 sequence (Q01064 whole entry): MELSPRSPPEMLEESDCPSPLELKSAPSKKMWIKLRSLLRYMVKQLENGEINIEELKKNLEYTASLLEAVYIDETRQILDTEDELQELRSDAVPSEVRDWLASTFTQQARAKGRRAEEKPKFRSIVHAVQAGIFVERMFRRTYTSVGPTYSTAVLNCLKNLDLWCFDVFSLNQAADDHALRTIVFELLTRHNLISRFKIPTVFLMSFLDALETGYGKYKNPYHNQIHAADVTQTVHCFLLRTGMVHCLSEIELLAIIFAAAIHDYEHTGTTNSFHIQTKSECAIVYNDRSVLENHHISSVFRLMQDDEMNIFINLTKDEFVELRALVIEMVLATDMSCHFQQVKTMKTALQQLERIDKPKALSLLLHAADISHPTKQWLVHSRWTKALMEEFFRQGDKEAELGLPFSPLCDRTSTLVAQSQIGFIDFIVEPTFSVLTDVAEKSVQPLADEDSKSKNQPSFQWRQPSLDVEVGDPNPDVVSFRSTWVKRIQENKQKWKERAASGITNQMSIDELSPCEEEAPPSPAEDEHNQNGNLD
T2 sequence (P54750 whole entry): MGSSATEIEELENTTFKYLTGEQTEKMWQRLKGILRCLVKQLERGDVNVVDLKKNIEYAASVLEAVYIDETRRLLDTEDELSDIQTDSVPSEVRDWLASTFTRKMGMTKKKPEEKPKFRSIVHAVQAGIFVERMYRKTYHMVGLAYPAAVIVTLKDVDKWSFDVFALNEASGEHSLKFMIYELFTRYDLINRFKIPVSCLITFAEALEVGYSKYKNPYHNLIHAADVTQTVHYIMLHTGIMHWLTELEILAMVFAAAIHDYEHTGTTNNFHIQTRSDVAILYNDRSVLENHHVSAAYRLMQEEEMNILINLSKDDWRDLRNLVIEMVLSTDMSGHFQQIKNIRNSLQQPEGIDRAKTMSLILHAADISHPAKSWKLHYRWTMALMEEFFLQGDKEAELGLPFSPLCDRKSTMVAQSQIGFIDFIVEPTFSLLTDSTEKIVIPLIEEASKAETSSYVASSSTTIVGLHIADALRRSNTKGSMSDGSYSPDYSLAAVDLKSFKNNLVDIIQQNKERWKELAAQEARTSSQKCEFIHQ

Turning to `Cc1ccc(F)cc1-c1ncc2c(=O)[nH]c(C3CN(Cc4nc5ccccc5[nH]4)CC3C)nn12` (single isomer, unassigned; (+)) [(+)-2-((3,4-trans)-1-((1H-benzo[d]imidazol-2-yl)methyl)-4-methylpyrrolidin-3-yl)-7-(5-fluoro-2-methylphenyl)imidazo[5,1-f][1,2,4]triazin-4(3H)-one], the IC50 (usually the concentration needed to halve the response being measured) against PDE9A2 (IC50 band) was below 1 µM. Also, the “PDE1A selectivity (versus PDE9A2)” value at PDE1A (ratio of IC50 values PDE1A vs PDE9A2, value greater than 1 indicates greater selectivity for PDE9A2) was found to be 89. The “PDE1B selectivity (versus PDE9A2)” value at PDE1B (ratio of IC50 values PDE1B vs PDE9A2, value greater than 1 indicates greater selectivity for PDE9A2) was 130.

As to `CC1CN(Cc2ccc3cnccc3c2)CC1c1nn2c(C3CCOCC3)ncc2c(=O)[nH]1` (single isomer, unassigned; (+)) [(+)-2-((3,4-trans)-1-(isoquinolin-6-ylmethyl)-4-methylpyrrolidin-3-yl)-7-(tetrahydro-2H-pyran-4-yl)imidazo[5,1-f][1,2,4]triazin-4(3H)-one], the IC50 on PDE9A2 (setting [1]) is below 1 µM. The “PDE1A selectivity (versus PDE9A2)” value at PDE1A (setting [2]) turned out to be 145. In addition, the “PDE1B selectivity (versus PDE9A2)” value at PDE1B (setting [2]) stood at 335.

`CC1CN(C(=O)c2ncc3ccccc3n2)CC1c1nn2c(C3CCOCC3)ncc2c(=O)[nH]1` (single isomer, unassigned; (-)) [(−)-2-((3,4-trans)-4-methyl-1-(quinazoline-2-carbonyl)pyrrolidin-3-yl)-7-(tetrahydro-2H-pyran-4-yl)imidazo[5,1-f][1,2,4]triazin-4(3H)-one]: the IC50 on PDE9A2 (setting [1]) is below 1 µM. For the same compound, the “PDE1A selectivity (versus PDE9A2)” value at PDE1A (setting [2]) was 32. For the same compound, the “PDE1B selectivity (versus PDE9A2)” value on PDE1B (setting [2]) was determined as 50.

Consider `CC1CN(Cc2ccnn2C)CC1c1nn2c(C3CCOCC3)ncc2c(=O)[nH]1` (single isomer, unassigned; (+)) [(+)-2-((3,4-trans)-4-methyl-1-((1-methyl-1H-pyrazol-5-yl)methyl)pyrrolidin-3-yl)-7-(tetrahydro-2H-pyran-4-yl)imidazo[5,1-f][1,2,4]triazin-4(3H)-one], for which the IC50 on PDE9A2 (Table 3, read-out: Band (PDE9A2 IC50)) is below 1 µM. Moreover, on PDE1A (ratio of IC50 values, PDE1A versus PDE9A2, value greater than 1 = greater selectivity for PDE9A2), the “PDE1A selectivity (versus PDE9A2)” value was 243. The “PDE1B selectivity (versus PDE9A2)” value on PDE1B (ratio of IC50 values, PDE1B versus PDE9A2, value greater than 1 = greater selectivity for PDE9A2) is 370.

As for `CC1CN(C(=O)c2cccnc2)CC1c1nn2c(C3CCOCC3)ncc2c(=O)[nH]1` (single isomer, unassigned; (-)) [(−)-2-((3,4-trans)-4-methyl-1-nicotinoylpyrrolidin-3-yl)-7-(tetrahydro-2H-pyran-4-yl)imidazo[5,1-f][1,2,4]triazin-4(3H)-one], the IC50 at PDE9A2 (setting [1]) is below 1 µM. Besides, the “PDE1A selectivity (versus PDE9A2)” value at PDE1A (setting [2]) is recorded as 36. Besides, the “PDE1B selectivity (versus PDE9A2)” value at PDE1B (setting [2]) was 50.

For the compound `CC1CN(Cc2ccccc2Cl)CC1c1nn2c(C3CCOCC3)ncc2c(=O)[nH]1` (single isomer, unassigned; (+)) [(+)-2-((3,4-trans)-1-(2-chlorobenzyl)-4-methylpyrrolidin-3-yl)-7-(tetrahydro-2H-pyran-4-yl)imidazo[5,1-f][1,2,4]triazin-4(3H)-one], the IC50 on PDE9A2 (setting [1]) was below 1 µM. Besides, at PDE1A (setting [2]), the “PDE1A selectivity (versus PDE9A2)” value was 92. In addition, at PDE1B (setting [2]), the “PDE1B selectivity (versus PDE9A2)” value turned out to be 48.

Take `CC1CN(Cc2cn3ccccc3n2)CC1c1nn2c(C3CCOCC3)ncc2c(=O)[nH]1` (single isomer, unassigned; (+)) [(+)-2-((3,4-trans)-1-(imidazo[1,2-a]pyridin-2-ylmethyl)-4-methylpyrrolidin-3-yl)-7-(tetrahydro-2H-pyran-4-yl)imidazo[5,1-f][1,2,4]triazin-4(3H)-one]: the IC50 at PDE9A2 (setting [1]) is below 1 µM. Besides, the “PDE1A selectivity (versus PDE9A2)” value at PDE1A (setting [2]) is on record as 754. On PDE1B (setting [2]), the “PDE1B selectivity (versus PDE9A2)” value is given as 734.

With `Cc1cc(F)ccc1-c1ncc2c(=O)[nH]c(C3CN(Cc4ncccn4)CC3C)nn12` (single isomer, unassigned; (-)) [(−)-7-(4-fluoro-2-methylphenyl)-2-((3,4-trans)-4-methyl-1-(pyrimidin-2-ylmethyl)pyrrolidin-3-yl)imidazo[5,1-f][1,2,4]triazin-4(3H)-one], the “PDE1A selectivity (versus PDE9A2)” value on PDE1A (setting [2]) is 132. Besides, the “PDE1B selectivity (versus PDE9A2)” value on PDE1B (setting [2]) was 175.

On to `CC1CN(Cc2cnccn2)CC1c1nn2c(C3CCOCC3)ncc2c(=O)[nH]1` (single isomer, unassigned; (+)) [(+)-2-((3,4-trans)-4-methyl-1-(pyrazin-2-ylmethyl)pyrrolidin-3-yl)-7-(tetrahydro-2H-pyran-4-yl)imidazo[5,1-f][1,2,4]triazin-4(3H)-one], for which the “PDE1A selectivity (versus PDE9A2)” value on PDE1A (setting [2]) came out at 202. In addition, the “PDE1B selectivity (versus PDE9A2)” value on PDE1B (setting [2]) came out at 178.

On to `CC1CN(Cc2cccc(F)c2)CC1c1nn2c(C3CCOCC3)ncc2c(=O)[nH]1` (single isomer, unassigned; (-)) [(−)-2-((3,4-trans)-1-(3-fluorobenzyl)-4-methylpyrrolidin-3-yl)-7-(tetrahydro-2H-pyran-4-yl)imidazo[5,1-f][1,2,4]triazin-4(3H)-one], for which the “PDE1A selectivity (versus PDE9A2)” value at PDE1A (setting [2]) amounted to 1110. Besides, on PDE1B (setting [2]), the “PDE1B selectivity (versus PDE9A2)” value was determined as 1140.

Turning to `CC1CN(C(C)c2ccccc2)CC1c1nn2c(C3CCOCC3)ncc2c(=O)[nH]1` (single isomer, unassigned; (+)) [(+)-2-((3,4-trans)-4-methyl-1-((S)-1-phenylethyl)pyrrolidin-], the “PDE1A selectivity (versus PDE9A2)” value at PDE1A (setting [2]) was 51. Also, the “PDE1B selectivity (versus PDE9A2)” value at PDE1B (setting [2]) is listed as 99.

Take `CC1CN(Cc2ncc3ccccc3n2)CC1c1nn2c(C3CCOCC3)ncc2c(=O)[nH]1` (single isomer, unassigned; (+)) [(+)-2-((3,4-trans)-4-methyl-1-(quinazolin-2-ylmethyl)pyrroli] [(+)-2-((3,4-trans)-4-methyl-1-(quinazolin-2-ylmethyl)pyrrolidin-3-yl)-7-(tetrahydro-2H-pyran-4-yl)imidazo[5,1-f][1,2,4]triazin-4(3H)-one]: the “PDE1A selectivity (versus PDE9A2)” value on PDE1A (setting [2]) came to 973. The “PDE1B selectivity (versus PDE9A2)” value on PDE1B (setting [2]) turned out to be 1360.

In the case of `Cc1cc(F)ccc1-c1ncc2c(=O)[nH]c(C3CN(Cc4ccccc4)CC3C)nn12` (single isomer, unassigned; (+)) [(+)-2-((3,4-trans)-1-benzyl-4-methylpyrrolidin-3-yl)-7-(4-fluoro-2-methylphenyl)imidazo[5,1-f][1,2,4]triazin-4(3H)-one], at PDE1A (setting [2]), the “PDE1A selectivity (versus PDE9A2)” value is given as 257. In addition, the “PDE1B selectivity (versus PDE9A2)” value on PDE1B (setting [2]) came out at 225.

As for `Cc1ccc(F)cc1-c1ncc2c(=O)[nH]c(C3CN(Cc4ncccn4)CC3C)nn12` (single isomer, unassigned; (+)) [(+)-7-(5-fluoro-2-methylphenyl)-2-((3,4-trans)-4-methyl-1-(p] [(+)-7-(5-fluoro-2-methylphenyl)-2-((3,4-trans)-4-methyl-1-(pyrimidin-2-ylmethyl)pyrrolidin-3-yl)imidazo[1,5-f][1,2,4]triazin-4(3H)-one], at PDE1A (setting [2]), the “PDE1A selectivity (versus PDE9A2)” value was 158. Further, the “PDE1B selectivity (versus PDE9A2)” value on PDE1B (setting [2]) was determined as 102.

Take `CC(=O)N1CCC(c2ncc3c(=O)[nH]c(C4CN(Cc5ccccc5)CC4C)nn23)CC1` (single isomer, unassigned; (+)) [(+)-7-(1-acetylpiperidin-4-yl)-2-((3,4-trans)-1-benzyl-4-methylpyrrolidin-3-yl)imidazo[5,1-f][1,2,4]triazin-4(3H)-one]: the “PDE1A selectivity (versus PDE9A2)” value on PDE1A (setting [2]) is reported as 177. Besides, on PDE1B (setting [2]), the “PDE1B selectivity (versus PDE9A2)” value worked out at 232.

`CC1CN(C(=O)c2ccc(F)cc2)CC1c1nn2c(C3CCOCC3)ncc2c(=O)[nH]1` (single isomer, unassigned; (-)) [(−)-2-((3,4-trans)-1-(4-fluorobenzoyl)-4-methylpyrrolidin-3-] [(−)-2-((3,4-trans)-1-(4-fluorobenzoyl)-4-methylpyrrolidin-3-yl)-7-(tetrahydro-2H-pyran-4-yl)imidazo[5,1-f][1,2,4]triazin-4(3H)-one]: the “PDE1A selectivity (versus PDE9A2)” value on PDE1A (setting [2]) came out at 12. For the same compound, the “PDE1B selectivity (versus PDE9A2)” value at PDE1B (setting [2]) came out at 23.
